Laboratory results reported in patent publication EP4549575A1 (priority 2023, dated 2025).
Entries after “also recorded” stand apart in the source; their conditions may differ. Square brackets hold non-standard residues; d marks the D form. Ends that are not written are not given here. Peptide text beside a SMILES is read from it. * marks the point of attachment. hCys = N[C@@H](CCS)C(=O)O; βAla = NCCC(=O)O; CF3 = FC(F)(F)*

How the values were obtained:
[1] = Chemical-physical properties (isoelectric point, net charge, solubility in water); assay type: physicochemical; details: for net charge: at pH 7
P. infestans = assay type: cell-based; details: for PPI (%) micelio: Ala-scan of Ac-LP32; for PPI / PPI (%) ± Std. Dev.: 200 µM, P. infestans mycelium; for PPI: solid medium, linear vs cyclic peptides (Figure 8); for PPI (%) ± Std. Dev.: peptidomimetics
pronase [2] = assay: Stability towards proteolysis (pronase, LC-MS); assay type: in vitro ADME, Streptomyces griseus; details: peptide 200 µM, protease 5 µg/mL, 37°C, pH 7.5; for stability against proteolysis: 0-2 h
Protocol: The evaluation of the stability of CP20 and Ac-LP20 towards proteolysis was tested at a peptide concentration of 200 µM using pronase (commercially available mixture of proteases isolated from the extracellular fluid of Streptomyces griseus, 2.5 µg/mg). Another peptide was added to this analysis, namely LP20 (without N-terminal acetylation), as it is easier to synthesize and to also assess the influence of N-terminal acetylation on the stability of LP20. Each peptide was tested in the presence of the protease (5 µg/mL) at 37°C in a buffer solution (50 mM Tris, 10 mM CaCl2, 150 mM NaCl, 0.05 % (w/v) Brij 35, pH 7.5) and its stability monitored by liquid chromatography coupled to mass spectrometry (LC-MS) at different time intervals (t=0 min, 10 min, 30 min, 1 h, 2 h). To stop enzyme activity, a small amount of the solution (60 µL) was transferred to an HPLC vial containing 6 µL of a 10% TFA solution at these different time points.

[3] = Conformational studies based on circular dichroism; assay type: physicochemical
Protocol: Conformational studies based on circular dichroism were performed under different conditions, such as: • 10 mM phosphate buffer, pH 7 • MES buffer 10 mM, pH 6 • Buffer acetate 10 mM, pH 5 • Phosphate buffer 10 mM/TFE (1:1) • TFE (trifluoroethanol)
Conformational studies based on circular dichroism were performed under different conditions such as: • 10 mM phosphate buffer, pH7 • Phosphate buffer 10mM/TFE, pH7 (1:1) • TFE (trifluoroethanol)
Conformational studies based on circular dichroism were performed under different conditions, such as: • 10 mM phosphate buffer, pH7 • MES buffer 10 mM, pH6 • Buffer acetate 10 mM, pH5 • Phosphate buffer 10 mM/TFE, pH7 (1:1) • TFE (trifluoroethanol)
Conformational studies based on circular dichroism were performed under different conditions, such as: • 10 mM phosphate buffer, pH7 • 10mM phosphate buffer/TFE (1:1) • TFE (trifluoroethanol)

pronase [4] = assay: pronase (commercially available mixture of proteases isolated from the extracellular fluid of Streptomyces griseus, 2.5 µg/mg) in buffer solution (50 mM Tris, 10 mM CaCl2, 150 mM NaCl, 0.05 % (w/v) Br); details: 37°C, up to 2 h
[5] = pH 7-TFE: phosphate buffer 10 mM/TFE (1:1)

CSCC[C@H](NC(=O)[C@H](Cc1c[nH]c2ccccc12)NC(=O)[C@H](CCCNC(=N)N)NC(=O)CCNC(C)=O)C(=O)N[C@@H](CC(C)C)C(=O)N[C@H](C(=O)N[C@@H](Cc1ccc(O)cc1)C(=O)N[C@@H](CCCNC(=N)N)C(=O)N[C@@H](CCCNC(=N)N)C(N)=O)C(C)C [Ac-LP20, Ac-βA -R-W-M-L-V-Y-R-R-CONH2] (Ac-[βAla]RWMLVYRR-NH2)
isoelectric point [1]: 12.4 pH | net charge [1]: +3 | solubility in water [1]: good solubility in water | PPI (%) mycelium (P. infestans; Ala-scan of Ac-LP20 and CP20-Met-Ala, P. infestans mycelium in vitro): 78.80 ± 4.07% | time of total proteolysis of the peptide (pronase [2]): 10 min | stability against proteolysis (pronase [2]): Low stability | Disordered (%) ([3]; 10 mM phosphate buffer, pH 7): 37% | Helixes (%) ([3]; 10 mM phosphate buffer, pH 7): 5% | Sheets (%) ([3]; 10 mM phosphate buffer, pH 7): 36% | Turns (%) ([3]; 10 mM phosphate buffer, pH 7): 22% | Disordered (%) ([3]; MES buffer 10 mM, pH 6): 33% | Helixes (%) ([3]; MES buffer 10 mM, pH 6): 6% | Sheets (%) ([3]; MES buffer 10 mM, pH 6): 40% | Turns (%) ([3]; MES buffer 10 mM, pH 6): 21% | Disordered (%) ([3]; TFE (trifluoroethanol)): 31% | Helixes (%) ([3]; TFE (trifluoroethanol)): 19% | Sheets (%) ([3]; TFE (trifluoroethanol)): 27% | Turns (%) ([3]; TFE (trifluoroethanol)): 23% | Disordered (%) ([3]; acetate buffer 10 mM, pH 5): 36% | Helixes (%) ([3]; acetate buffer 10 mM, pH 5): 7% | Sheets (%) ([3]; acetate buffer 10 mM, pH 5): 35% | Turns (%) ([3]; acetate buffer 10 mM, pH 5): 22% | Disordered (%) [3, 5]: 29% | Helixes (%) [3, 5]: 18% | Sheets (%) [3, 5]: 29% | Turns (%) [3, 5]: 24%

CC(=O)NCCC(=O)NCC(=O)N[C@@H](CCCNC(=N)N)C(=O)N[C@@H](CC(C)C)C(=O)N[C@@H](CCCNC(=N)N)C(=O)N[C@@H](Cc1c[nH]c2ccccc12)C(=O)N[C@@H](CC(C)C)C(=O)N[C@@H](CCCNC(=N)N)C(=O)N[C@H](C(N)=O)C(C)C [Ac-LP32, Ac-βA -G-R-L-R-W-L-R-V-CONH2] (Ac-[βAla]GRLRWLRV-NH2)
isoelectric point [1]: 14 pH | net charge [1]: +3 | solubility in water [1]: good solubility in water | PPI (%) micelio (P. infestans; P. infestans mycelium in vitro): 70.23 ± 3.84% | time of total proteolysis of the peptide (pronase [2]): 10 min | stability against proteolysis (pronase [2]): low stability | Disordered (%) ([3]; 10 mM phosphate buffer, pH 7): 44% | Helixes (%) ([3]; 10 mM phosphate buffer, pH 7): 5% | Sheets (%) ([3]; 10 mM phosphate buffer, pH 7): 33% | Turns (%) ([3]; 10 mM phosphate buffer, pH 7): 18% | Disordered (%) ([3]; TFE (trifluoroethanol)): 51% | Helixes (%) ([3]; TFE (trifluoroethanol)): 5% | Sheets (%) ([3]; TFE (trifluoroethanol)): 30% | Turns (%) ([3]; TFE (trifluoroethanol)): 14% | Disordered (%) [3, 5]: 47% | Helixes (%) [3, 5]: 5% | Sheets (%) [3, 5]: 30% | Turns (%) [3, 5]: 18%

CC(=O)NCCC(=O)NCC(=O)N[C@@H](CCCNC(=N)N)C(=O)N[C@@H](CC(C)C)C(=O)N[C@@H](C)C(=O)N[C@@H](Cc1c[nH]c2ccccc12)C(=O)N[C@@H](CC(C)C)C(=O)N[C@@H](CCCNC(=N)N)C(=O)N[C@H](C(N)=O)C(C)C [Ac-LP32-Ala5, Ac-βA-GRLAWLRV-CONH2] (Ac-[βAla]GRLAWLRV-NH2)
PPI (%) micelio (P. infestans; P. infestans mycelium in vitro): 40.46 ± 1.76%

CC(=O)NCCC(=O)NCC(=O)N[C@@H](CCCNC(=N)N)C(=O)N[C@@H](CC(C)C)C(=O)N[C@@H](CCCNC(=N)N)C(=O)N[C@@H](C)C(=O)N[C@@H](CC(C)C)C(=O)N[C@@H](CCCNC(=N)N)C(=O)N[C@H](C(N)=O)C(C)C [Ac-LP32-Ala6, Ac-βA-GRLRALRV-CONH2] (Ac-[βAla]GRLRALRV-NH2)
PPI (%) micelio (P. infestans; P. infestans mycelium in vitro): 54.20 ± 4.31%

CC(=O)NCCC(=O)NCC(=O)N[C@@H](CCCNC(=N)N)C(=O)N[C@@H](CC(C)C)C(=O)N[C@@H](CCCNC(=N)N)C(=O)N[C@@H](Cc1c[nH]c2ccccc12)C(=O)N[C@@H](C)C(=O)N[C@@H](CCCNC(=N)N)C(=O)N[C@H](C(N)=O)C(C)C [Ac-LP32-Ala7, Ac-βA-GRLRWARV-CONH2] (Ac-[βAla]GRLRWARV-NH2)
PPI (%) micelio (P. infestans; P. infestans mycelium in vitro): 59.29 ± 7.05%

CC(=O)NCCC(=O)NCC(=O)N[C@@H](CCCNC(=N)N)C(=O)N[C@@H](CC(C)C)C(=O)N[C@@H](CCCNC(=N)N)C(=O)N[C@@H](Cc1c[nH]c2ccccc12)C(=O)N[C@@H](CC(C)C)C(=O)N[C@@H](C)C(=O)N[C@H](C(N)=O)C(C)C [Ac-LP32-Ala8, Ac-βA-GRLRWLAV-CONH2] (Ac-[βAla]GRLRWLAV-NH2)
PPI (%) micelio (P. infestans; P. infestans mycelium in vitro): 17.56 ± 7.48%

CC(=O)NCCC(=O)NCC(=O)N[C@@H](CCCNC(=N)N)C(=O)N[C@@H](CC(C)C)C(=O)N[C@@H](CCCNC(=N)N)C(=O)N[C@@H](Cc1c[nH]c2ccccc12)C(=O)N[C@@H](CC(C)C)C(=O)N[C@@H](CCCNC(=N)N)C(=O)N[C@@H](C)C(N)=O [Ac-LP32-Ala9, Ac-βA-GRLRWLRA-CONH2] (Ac-[βAla]GRLRWLRA-NH2)
PPI (%) micelio (P. infestans; P. infestans mycelium in vitro): 19.85 ± 2.92%

CSCC[C@H](NC(=O)[C@H](Cc1c[nH]c2ccccc12)NC(=O)[C@H](CCCNC(=N)N)NC(=O)CCN)C(=O)N[C@@H](CC(C)C)C(=O)N[C@H](C(=O)N[C@@H](Cc1ccc(O)cc1)C(=O)N[C@@H](CCCNC(=N)N)C(=O)N[C@@H](CCCNC(=N)N)C(N)=O)C(C)C [LP20] (H-[βAla]RWMLVYRR-NH2)
PPI (P. infestans): 72.78% | time of total proteolysis of the peptide (pronase [2]): 10 min | stability against proteolysis (pronase [2]): Low stability

CC(C)C[C@H](NC(=O)[C@H](CCCNC(=N)N)NC(=O)CNC(=O)CCN)C(=O)N[C@@H](CCCNC(=N)N)C(=O)N[C@@H](Cc1c[nH]c2ccccc12)C(=O)N[C@@H](CC(C)C)C(=O)N[C@@H](CCCNC(=N)N)C(=O)N[C@H](C(N)=O)C(C)C [LP32] (H-[βAla]GRLRWLRV-NH2)
PPI (P. infestans): 76.97% | time of total proteolysis of the peptide (pronase [2]): 10 min | stability against proteolysis (pronase [2]): low stability

CC(C)C[C@H](NC(=O)[C@H](CCSC(F)(F)F)NC(=O)[C@H](Cc1c[nH]c2ccccc12)NC(=O)[C@H](CCCNC(=N)N)NC(=O)CCN)C(=O)N[C@H](C(=O)N[C@@H](Cc1ccc(O)cc1)C(=O)N[C@@H](CCCNC(=N)N)C(=O)N[C@@H](CCCNC(=N)N)C(N)=O)C(C)C [LR131, H2N-βA-RW-MCF3-LVYRR-CONH2] (H-[βAla]RW[hCys](CF3)LVYRR-NH2)
PPI (%) ± Std. Dev. (P. infestans): 85.32 ± 5.19 (b) %

CSCC[C@H](NC(=O)[C@@H](Cc1c[nH]c2ccccc12)NC(=O)[C@@H](CCCNC(=N)N)NC(=O)CCN)C(=O)N[C@@H](CC(C)C)C(=O)N[C@H](C(=O)N[C@H](Cc1ccc(O)cc1)C(=O)N[C@@H](CCCNC(=N)N)C(=O)N[C@H](CCCNC(=N)N)C(N)=O)C(C)C [LR202, H2N-βA-(D)R-(D)W-MLV-(D)Y-R-(D)R-CONH2] (H-[βAla][dR][dW]MLV[dY]R[dR]-NH2)
PPI (%) ± Std. Dev. (P. infestans): 78.26 ± 0 (b) %

CSCC[C@H](NC(=O)[C@@H](Cc1c[nH]c2ccccc12)NC(=O)[C@@H](CCCNC(=N)N)NC(=O)CCN)C(=O)N[C@@H](CC(C)C)C(=O)N[C@H](C(=O)N[C@H](Cc1ccc(O)cc1)C(=O)N[C@@H](CCCNC(=N)N)C(=O)N[C@@H](CCCNC(=N)N)C(N)=O)C(C)C [LR206, H2N-βA-(D)R-(D)W-MLV-(D)Y-RR-CONH2] (H-[βAla][dR][dW]MLV[dY]RR-NH2)
PPI (%) ± Std. Dev. (P. infestans): 81.52 ± 5.47 (b) %

Ac-[βAla]GRLRWLRV-NH2
cleaved bond (pronase [4]): Trp-Leu7, 10 minutes later; also recorded: Leu4-Arg5, 10 min; also recorded: Arg5-Trp, 10 min; also recorded: Leu7-Arg8, 10 min; also recorded: Arg8-Val, 10 min

Ac-[βAla]RWMLVYRR-NH2
cleaved bond (pronase [4]): Met4-Leu, first_seen, t0; also recorded: Arg2-Trp3, 10 min; also recorded: Trp3-Met4, 10 min

H2N-βA-RWM-hL-VYRR-CONH2 (H-[βAla]RWMXVYRR-NH2; not fully specified (residue 5); printed as H2N-βA-RWM-hL-VYRR-CONH2) [LR193, hydrazino-Leu analogue]
PPI (%) ± Std. Dev. (P. infestans): 79.35 ± 5.47 (b) %

[βAla]GRLRWLRV [CP32]
cleaved bond (pronase [4]): βAla-Gly, first_seen, After mixing protease with peptide solution; also recorded: Leu7-Arg8, first_seen, After mixing protease with peptide solution; also recorded: Arg8-Val; also recorded: Leu4-Arg5, 10 minutes; also recorded: Arg5-Trp, 10 minutes; also recorded: Trp-Leu7, 10 minutes

[βAla]GRLRWLRV [LP32]
cleaved bond (pronase [4]): Trp-Leu7, first_seen, immediately, after mixing protease with peptide solution; also recorded: Leu4-Arg5, 10 min; also recorded: Arg5-Trp, 10 min; also recorded: Leu7-Arg8, 10 min; also recorded: Arg8-Val, 10 min

[βAla]RWMLVYRR [CP20]
cleaved bond (pronase [4]): Arg8-Arg9, 2 hours; also recorded: Met4-Leu, 2 hours

[βAla]RWMLVYRR [LP20]
cleaved bond (pronase [4]): Met4-Leu, first_seen, t0; also recorded: Arg2-Trp3, 10 min; also recorded: Trp3-Met4, 10 min
